Assay results reported in article PMC11881577, “In vitro and in vivo activity of 1,2,3,4,6-O-pentagalloyl-glucose against Candida albicans” (Antimicrobial Agents and Chemotherapy, 2025).

Experiments:
hEno1 = target: T1, hEno1 (Homo sapiens, UniProt P06733); assay: spectrophotometric enolase assay (PEP formation at […] nm) on purified enzyme; type: biochemical
T1 construct: gene ENO1; recombinant hEno1, expressed and purified using the same procedure as CaEno1

CaEno1 = target: T2, CaEno1 (Candida albicans, UniProt P30575); assay: spectrophotometric enolase assay (PEP formation at […] nm) on purified enzyme; supported by DARTS; type: biochemical
T2 construct: gene ENO1; recombinant, 6 × His tag, expressed in E. coli BL21(DE3)
T2 sequence (P30575 whole entry): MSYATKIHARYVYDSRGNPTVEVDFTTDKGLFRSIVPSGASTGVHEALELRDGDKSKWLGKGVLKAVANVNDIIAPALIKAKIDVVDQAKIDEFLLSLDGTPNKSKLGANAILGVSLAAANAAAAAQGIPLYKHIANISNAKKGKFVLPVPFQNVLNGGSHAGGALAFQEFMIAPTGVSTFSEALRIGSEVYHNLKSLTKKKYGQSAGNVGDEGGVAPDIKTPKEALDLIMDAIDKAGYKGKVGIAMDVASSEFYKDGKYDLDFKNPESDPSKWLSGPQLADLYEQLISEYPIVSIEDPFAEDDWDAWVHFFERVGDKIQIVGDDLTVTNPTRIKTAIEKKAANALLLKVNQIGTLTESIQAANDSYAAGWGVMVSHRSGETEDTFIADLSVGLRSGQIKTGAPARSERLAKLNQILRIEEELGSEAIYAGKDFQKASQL

T1 sequence (P06733 2-434): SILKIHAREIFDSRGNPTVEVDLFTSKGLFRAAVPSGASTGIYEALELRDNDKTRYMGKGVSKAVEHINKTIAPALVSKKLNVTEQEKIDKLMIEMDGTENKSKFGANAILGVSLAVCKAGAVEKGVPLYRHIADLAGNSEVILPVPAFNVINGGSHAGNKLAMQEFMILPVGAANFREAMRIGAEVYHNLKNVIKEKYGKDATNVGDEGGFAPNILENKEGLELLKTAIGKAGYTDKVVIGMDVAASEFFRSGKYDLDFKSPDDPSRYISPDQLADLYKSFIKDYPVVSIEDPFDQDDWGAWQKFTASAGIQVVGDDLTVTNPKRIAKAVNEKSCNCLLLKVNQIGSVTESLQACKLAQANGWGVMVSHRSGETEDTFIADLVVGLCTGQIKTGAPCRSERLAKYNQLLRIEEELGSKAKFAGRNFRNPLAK

O=C(OC[C@H]1O[C@@H](OC(=O)c2cc(O)c(O)c(O)c2)[C@H](OC(=O)c2cc(O)c(O)c(O)c2)[C@@H](OC(=O)c2cc(O)c(O)c(O)c2)[C@@H]1OC(=O)c1cc(O)c(O)c(O)c1)c1cc(O)c(O)c(O)c1 [1,2,3,4,6-O-pentagalloyl-glucose]
IC50 (hEno1): 1500 ± 270 nM | Ki (CaEno1): 1100 ± 140 nM
